Test results as given in the NIST ThermoML archive (doi:10.1021/je700740e).

Details: Liquid; for mass density: Vibrating tube method; for viscosity: Vibrating wire viscometry

CCOC(=O)CCCCC(=O)OCC [diethyl hexanedioate]
Details	mass density [kg/m3]	viscosity [mPa·s]
303.15 K, 100 kPa	998.842	2.786
303.15 K, 4520 kPa	1001.81	2.909
303.15 K, 9610 kPa	1005.24	3.061
303.15 K, 14700 kPa	1008.51	3.226
303.15 K, 19790 kPa	1012.52	3.343
313.15 K, 100 kPa	989.86	2.257
313.15 K, 4520 kPa	993.535	2.335
313.15 K, 9630 kPa	996.693	2.472
313.15 K, 14750 kPa	1000.42	2.589
313.15 K, 19890 kPa	1003.55	2.726
323.15 K, 100 kPa	981.395	1.846
323.15 K, 4520 kPa	984.72	1.932
323.15 K, 9600 kPa	988.74	2.021
323.15 K, 14690 kPa	992.273	2.126
323.15 K, 19710 kPa	995.581	2.23
333.15 K, 100 kPa	971.597	1.58
333.15 K, 4520 kPa	975.516	1.642
333.15 K, 9630 kPa	979.685	1.716
333.15 K, 14710 kPa	983.483	1.802
333.15 K, 19710 kPa	987.107	1.886
343.15 K, 100 kPa	962.622	1.35
343.15 K, 4510 kPa	966.544	1.407
343.15 K, 9600 kPa	970.932	1.471
343.15 K, 14700 kPa	975.031	1.542
343.15 K, 19700 kPa	978.932	1.608
353.15 K, 100 kPa	953.224	1.179
353.15 K, 4520 kPa	957.353	1.227
353.15 K, 9620 kPa	962.118	1.28
353.15 K, 14710 kPa	966.479	1.338
353.15 K, 19680 kPa	970.392	1.402
363.15 K, 100 kPa	943.203	1.041
363.15 K, 4520 kPa	948.203	1.078
363.15 K, 9610 kPa	953.106	1.129
363.15 K, 14700 kPa	957.919	1.174
363.15 K, 19710 kPa	962.125	1.226
373.15 K, 100 kPa	934.753	0.914
373.15 K, 4520 kPa	939.138	0.956
373.15 K, 9620 kPa	944.359	1
373.15 K, 14680 kPa	948.986	1.046
373.15 K, 19910 kPa	953.741	1.096

Cc1ccccc1 [toluene]
Details	mass density, 298.15 K [kg/m3]	mass density, 323.15 K [kg/m3]	viscosity, 298.15 K [mPa·s]	viscosity, 323.15 K [mPa·s]
100 kPa	862.5	–	0.555	–
120 kPa	–	840.467	–	0.425
2300 kPa	864.389	–	0.569	–
3340 kPa	–	843.459	–	0.431
4400 kPa	865.888	–	0.58	–
6340 kPa	–	846.144	–	0.448
7430 kPa	868.038	–	0.593	–
9600 kPa	–	848.793	–	0.461
10400 kPa	870.54	–	0.597	–
12470 kPa	871.736	–	0.613	–
12750 kPa	–	851.586	–	0.464
14490 kPa	873.496	–	0.617	–
14770 kPa	–	853.276	–	0.466
